These results are taken from US5264427A, “20-substituted pregnene derivatives and their use as androgen synthesis inhibitors” (priority 1992, dated 1993).

Where two headings read alike, the source gives them in different places.

What all share (assay type): biochemical
Experiment [1] has as its target T1, rat testicular 17(alpha)-hydroxylase/C17,20-lyase (Rattus norvegicus, UniProt P11715).
T1 construct: rat testicular homogenates (prepared from 220-250g adult male Sprague-Dawley rats); from tissue; host or cells: testes of adult male Sprague-Dawley rats, homogenate
T1 sequence (P11715 1-507): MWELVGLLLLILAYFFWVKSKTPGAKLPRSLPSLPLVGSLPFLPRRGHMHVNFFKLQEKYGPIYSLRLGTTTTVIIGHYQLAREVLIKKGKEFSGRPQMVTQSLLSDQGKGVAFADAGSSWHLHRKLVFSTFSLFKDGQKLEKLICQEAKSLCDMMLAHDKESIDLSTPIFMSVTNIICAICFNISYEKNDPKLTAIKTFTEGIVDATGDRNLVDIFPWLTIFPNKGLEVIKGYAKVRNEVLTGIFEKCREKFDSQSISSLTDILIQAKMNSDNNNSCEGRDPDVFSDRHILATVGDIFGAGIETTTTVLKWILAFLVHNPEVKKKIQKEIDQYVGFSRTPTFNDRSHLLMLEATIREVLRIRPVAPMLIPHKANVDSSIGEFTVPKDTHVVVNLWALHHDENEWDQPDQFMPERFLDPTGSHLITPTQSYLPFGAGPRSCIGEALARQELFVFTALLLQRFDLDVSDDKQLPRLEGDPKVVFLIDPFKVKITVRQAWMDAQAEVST
Kind of experiment: Hydroxylase/lyase assay, rat testicular homogenates, [21-14C]progesterone (Example 4, Table 3). Particulars: 0.75 h. The protocol: The assay was performed by incubation of rat testicular homogenates (prepared from 220-250g adult male Sprague-Dawley rats, approx. 3.5 mg protein) with [21-^14 C]progesterone (40uM, 5×10^4 dpm), NADPH generating system and candidate inhibitors in phosphate buffer (pH 7.4, total volume 500ul) under oxygen for 45 min at 37° C. Two ml of choloroform was added to each tube to stop the reaction. The steriods were extracted with chloroform and the aqueous phase was treated with charcoal. The side chain cleavage product [2-^14 C]acetic acid in the aqueous phase was mixed with 3a70B counting cocktail and counted on the Rack Beta II liquid scintillation counter. The enzyme activity was determined from the conversion of progesterone P4 to [2-^14 C]acetic acid.

Experiment [2] addresses T2, 17(alpha)-hydroxylase/17,20-lyase enzyme (Rattus norvegicus, UniProt P11715).
T2 sequence (P11715 1-507): T1 sequence (P11715 1-507)
As to the kind of experiment: 17(alpha)-hydroxylase/17,20-lyase inhibition, rat testicular microsomes (Example 1). Particulars: result in words. The protocol: Testes were obtained from 220°-250g adult male Sprague-Dawley rats (Charles River), immediately frozen in liquid nitrogen and stored at -70° C. After thawing in the ice bath, the testes were minced and homogenized in 0.25M sucrose (1:4 w/v), then centrifuged at 12,000×gfor 30 min and the resulting supernatant centrifuged at 105,000×g for one hour. The supernatant was then decanted and the pellet containing the microsomes was resuspended in 0.1M sodium phosphate buffer (pH 7.4) (2.5g wet weight of tissue/ 2 ml buffer). All the above procedures were performed at 4C. The microsomal fraction was stored at -70C. Just before use, microsomes were diluted to the concentration of 1.25 g wet weight of tissue/10 ml phosphate buffer.
The incubation was stopped by cooling the mixture in an ice bath and adding 2 ml ether to each incubation tube. The ^3 H-labelled steriods (progesterone P4; 17(alpha)-hydroxyprogesterone 170HP4, androstenedione A and testosterone T, 8,000dpm each) were added as recovery markers and the steroids were extracted with ether (2 ml×3). The ether was evaporated with air. Steroid carriers (P4, 17-0HP4, A and T, 4 micrograms each) were added to the extracts which were then applied to thin layer chromatography (TLC) plates for separation of the steroids. […] After evaporating the ether, the steroids were dissolved in counting cocktail and the radioactivity measured. The recovery of steroids calculated from the ^3 H-labelled markers was between 80 to 90 percent and the enzyme activity was determined from the percentage conversion of [4-C^14 ]-progesterone to 170HP4, A and T.
C^17,20 -Lyase: The procedure for measurement of the C17,20 -lyase was similar to the procedure for the 17(alpha)-hydroxylase, except that the substrate was 17(alpha)-hydroxy-[[1,2,6,7-^3 H]-progesterone (various concentration, 10^5 dpm) and recovery markers were [4-^14 C]-labelled steroids. […] The enzyme activity was determined from the percent conversion of 17(alpha)-hydroxy-[1,2,6,7-3H]-progesterone to A and T.

Experiment [3] addresses T3, 17(alpha)-hydroxylase/C17,20-lyase (Rattus norvegicus, UniProt P11715).
T3 construct: with rat testis homogenates (2.7 mg protein in 0.5 ml phosphate buffer); from tissue; host or cells: rat testis homogenate
T3 sequence (P11715 1-507): T1 sequence (P11715 1-507)
Kind of experiment: Hydroxylase/lyase assay, rat testis homogenates, [21-14C]-progesterone side-chain cleavage (Examples 2 and 3, Table 2). The settings on record: progesterone 40 microM, 45 min. The protocol:
Compounds I-16 and I-25 were synthesized according to known procedures. The compounds were then assayed for their ability to inhibit the 17(alpha)-hydroxylase/C17,20 -lyase enzyme and the 5(alpha)-reductaseenzyme. The hydroxylase/lyase assay was carried out by incubation of [21-^14 C]-progesterone (40 microM, 70,000 dpm) and candidate inhibitors with rat testis homogenates (2.7 mg protein in 0.5 ml phosphate buffer), NADPH generating system under oxygen for 45 minutes. The enzyme activity was measured according to the conversion of progesterone to the product of C17,20 -side chain cleavage ([2-^14 C]-acetic acid). […] The results were based on the TLC separation.

Where [4] appears, read: pH 7.4, read-out: Inhibition of 17(alpha)-hydroxylase/C17,20-lyase (%), [I] = 10 × [S].
[5] abbreviates: pH 7.4, read-out: Inhibition of 17(alpha)-hydroxylase/C17,20-lyase (%), [I] = [S].
Where [6] appears, read: [I] = 10 × [S], progesterone 40uM, pH 7.4, 45 min, 37 C, read-out: Inhibition of 17(alpha)-hydroxylase/C17,20-lyase (%), [I] = 10 × [S].
[7] abbreviates: [I] = [S], progesterone 40uM, pH 7.4, 45 min, 37 C, read-out: Inhibition of 17(alpha)-hydroxylase/C17,20-lyase (%), [I] = [S].

For `C[C@@H](N)[C@H]1CC[C@H]2[C@@H]3CC=C4C[C@@H](O)CC[C@]4(C)[C@H]3CC[C@]12C` [Compound I-10], the inhibition at 400 µM in experiment [1] (setting [4]) was 33.8%. Also, the inhibition at 40 µM in experiment [1] (setting [5]) is 8.54%.

For the compound `CC(=O)OC1=CC2=CC[C@H]3[C@@H]4CC[C@H]([C@H](C)C#N)[C@@]4(C)CC[C@@H]3[C@@]2(C)CC1` [Compound I-24], the inhibition at 400 µM in experiment [1] (setting [6]) was determined as 67.2%. For the same compound, the inhibition at 40 µM in experiment [1] (setting [7]) amounted to 33.6%.

For `C#C[C@H]1CC[C@H]2[C@@H]3CC=C4C[C@@H](O)CC[C@]4(C)[C@H]3CC[C@]12C` [Compound I-29], the inhibition at 400 µM in experiment [1] (setting [4]) was 3.84%. Moreover, the inhibition at 40 µM in experiment [1] (setting [5]) was 8.26%.

As to `CC(=NN)[C@H]1CC[C@H]2[C@@H]3CC=C4C[C@@H](O)CC[C@]4(C)[C@H]3CC[C@]12C` [Compound I-12], the inhibition at 400 µM in experiment [1] (setting [6]) is 25.9%. Besides, in experiment [1] (setting [7]), the inhibition at 40 µM is 8.55%.

As to `CC(C#N)=C1CC[C@H]2[C@@H]3CCC4=CC(=O)CC[C@]4(C)[C@H]3CC[C@]12C` [Compound I-26, 20-cyano-4,17(20)-pregnadien-3-one], the inhibition at 400 µM in experiment [1] (setting [4]) is 89.7%. Moreover, the inhibition at 40 µM in experiment [1] (setting [5]) is 53.5%.

For `C=C[C@H]1CC[C@H]2[C@@H]3CC=C4C[C@@H](O)CC[C@]4(C)[C@H]3CC[C@]12C` [Compound I-28], the inhibition at 400 µM in experiment [1] (setting [4]) is 18.3%. In addition, the inhibition at 40 µM in experiment [1] (setting [5]) was 13.5%.

`CC(=NO)[C@H]1CC[C@H]2[C@@H]3CC=C4C[C@@H](O)CC[C@]4(C)[C@H]3CC[C@]12C` [Compound I-1]: the inhibition at 400 µM in experiment [1] (setting [4]) amounted to 29.2%. Further, in experiment [1] (setting [5]), the inhibition at 40 µM turned out to be 15%.

As to `CC(=O)[C@@]12O[C@@H]1C[C@H]1[C@@H]3CCC4=CC(=O)CC[C@]4(C)[C@H]3CC[C@@]12C` [Compound I-18], in experiment [1] (setting [6]), the inhibition at 400 µM came out at 64.2%. Besides, the inhibition at 40 µM in experiment [1] (setting [7]) amounted to 26.5%.

For `CC(=NN(C)C)C1=CC[C@H]2[C@@H]3CC=C4C[C@@H](O)CC[C@]4(C)[C@H]3CC[C@]12C` [Compound I-14, 5,16-Pregnadien-3(beta)-ol-20-one N,N-dimethyl hydrazone], in experiment [1] (setting [6]), the inhibition at 400 µM was determined as 2.34%. Moreover, in experiment [1] (setting [7]), the inhibition at 40 µM turned out to be 10.2%.

On to `C[C@]12CCC(=O)C(O)=C1CC[C@@H]1[C@@H]2CC[C@]2(C)C(=O)CC[C@@H]12` [Compound 4-OHA, 4-hydroxy androstenedione, reference compound], for which, in experiment [2], the “inhibition of the 17(alpha)-hydroxylase/17,20-lyase enzyme” value is given as “did not show any inhibition”.

`C[C@H](C=O)[C@H]1CC[C@H]2[C@@H]3CCC4=CC(=O)CC[C@]4(C)[C@H]3CC[C@]12C` [Compound I-16, 4-pregnen-3-one-20(beta)carboxaldehyde]: in experiment [3], the “% Inhibition of 17(alpha)hydroxylase/lyase, [I] = 10 × [S]” value came to 89.95% and the “% Inhibition of 17(alpha)hydroxylase/lyase, [I] = [S]” value was 61.76%.

Consider `C[C@]12CC[C@H]3[C@@H](CC=C4C[C@@H](O)CC[C@@]43C)[C@@H]1CC[C@@H]2[C@]1(C)CO1` [Compound I-7, (20R)-20,21-epoxy-20-methyl-5-pregnen-3(beta)ol], for which the inhibition at 400 µM in experiment [1] (setting [4]) amounted to 28.3%. Further, the inhibition at 40 µM in experiment [1] (setting [5]) stood at 21.6%.

Consider `CC(O)(C#N)[C@H]1CC[C@H]2[C@@H]3CCC4=CC(=O)CC[C@]4(C)[C@H]3CC[C@]12C` (stereo partly drawn) [Compound I-25, 20-cyano-20-hydroxy-4-pregnen-3-one], for which, in experiment [3], the “% Inhibition of 17(alpha)hydroxylase/lyase, [I] = 10 × [S]” value turned out to be 89.32% and the “% Inhibition of 17(alpha)hydroxylase/lyase, [I] = [S]” value came out at 50.63%.

`C[C@]12CC[C@H]3[C@@H](CC=C4C[C@@H](O)CC[C@@]43C)[C@@H]1CC[C@@H]2[C@@]1(C)CO1` [Compound I-8, (20S)-20,21-epoxy-20-methyl-5-pregnen-3(beta)-ol]: in experiment [1] (setting [4]), the inhibition at 400 µM was 29.4%. Besides, in experiment [1] (setting [5]), the inhibition at 40 µM is 16.3%.

`CC(=NO)C1=CC[C@H]2[C@@H]3CC=C4C[C@@H](O)CC[C@]4(C)[C@H]3CC[C@]12C` [Compound I-5]: the inhibition at 400 µM in experiment [1] (setting [4]) stood at 51.8%. Moreover, the inhibition at 40 µM in experiment [1] (setting [5]) worked out at 25.2%.

`C[C@H](C=NN(C)C)[C@H]1CC[C@H]2[C@@H]3CCC4=CC(=O)CC[C@]4(C)[C@H]3CC[C@]12C` [Compound I-15, 4-pregnen-3-oxo-20(beta)-carboxaldehyde N,N-dimethyl hydrazone]: the inhibition at 400 µM in experiment [1] (setting [6]) was 52.7%. The inhibition at 40 µM in experiment [1] (setting [7]) amounted to 22.4%.

For the compound `C[C@H](N)[C@H]1CC[C@H]2[C@@H]3CC=C4C[C@@H](O)CC[C@]4(C)[C@H]3CC[C@]12C` [Compound I-9], the inhibition at 400 µM in experiment [1] (setting [4]) was 27.3%. Besides, the inhibition at 40 µM in experiment [1] (setting [5]) was found to be 13.6%.
